In publication PMC11683478, “Bioprospecting of culturable marine biofilm bacteria for novel antimicrobial peptides” (iMeta, 2024):

Assays:
Experiment in all cases: Antibacterial screen at 200 μg/mL (cell density vs control)
Format in all cases: cell-based
Conditions in all cases: peptide 200 μg/mL, CAMHB, 5 × 10^5 CFU/mL, 37°C, 12 h, OD600; control (no AMP) = 1; three biological replicates
[1] = test system: Escherichia coli ATCC 11775
In short: (§1)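 Log-phase bacteria (OD600 0.5) in CAMHB diluted to 5 × 10^5 CFU/mL and exposed to 200 μg/mL peptide for 12 h at 37 °C, triplicate biological replicates. OD600 corrected for blank and peptide-only controls, compared with untreated growth by t-test (p 0.05); MIC taken as lowest concentration with no visible growth.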

[2] = test system: Vibrio owensii ems001
In short: as §1

[3] = test system: Staphylococcus aureus ATCC 12600
In short: as §1

[4] = test system: Micrococcus luteus ATCC 4698
In short: as §1

[5] = test system: Salmonella bongori ATCC 43975
In short: as §1

[6] = test system: Bacillus subtilis ATCC 23857
In short: as §1

[7] = test system: Vibrio alginolyticus xv22
In short: as §1

[8] = test system: Acinetobacter baumannii ATCC 19606
In short: as §1

| Sequence | cell density relative to control, E. coli ATCC 11775 [1] | cell density relative to control, V. owensii ems001 [2] | cell density relative to control, S. aureus ATCC 12600 [3] | cell density relative to control, M. luteus ATCC 4698 [4] | cell density relative to control, S. bongori ATCC 43975 [5] | cell density relative to control, B. subtilis ATCC 23857 [6] | cell density relative to control, V. alginolyticus xv22 [7] | cell density relative to control, A. baumannii ATCC 19606 [8] |
| --- | --- | --- | --- | --- | --- | --- | --- | --- |
| MSCDLQKVRGCLPRLIVHK [Cand-142, chemically synthesized candidate AMP predicted from marine biofilm bacteria] | 1 | 1 | 0.941 | 1 | 0.989 | 1 | 1 | 1 |
| MSKIKAKIGHLR [Cand-98, chemically synthesized candidate AMP predicted from marine biofilm bacteria] | 0.765 | 1 | 0.721 | 1 | 1 | 1 | 1 | 0.74 |
| MSPRICSVISCLMKLRC [Cand-11, chemically synthesized candidate AMP predicted from marine biofilm bacteria] | 0.967 | 0.023 | 0.019 | 0.931 | 0.522 | 1 | 0.018 | 0.023 |
| MTWPSRSRMWRTC [Cand-129, chemically synthesized candidate AMP predicted from marine biofilm bacteria] | 0.692 | 0.021 | 0.012 | 0.751 | 0.704 | 0.061 | 0.004 | 1 |
| MVKLLKKMVSLYH [Cand-122, chemically synthesized candidate AMP predicted from marine biofilm bacteria] | 0.642 | 0.188 | 0 | 0.728 | 0.455 | 0.002 | 1 | 0.907 |
| MWAVARGRR [Cand-195, chemically synthesized candidate AMP predicted from marine biofilm bacteria] | 1 | 0.958 | 0.945 | 0.987 | 1 | 0.676 | 1 | 1 |
| MWKLPKWRNGRRRGFKIPRW [Cand-109, chemically synthesized candidate AMP predicted from marine biofilm bacteria] | 0.002 | 0.039 | 0 | 0.02 | 0.019 | 0.012 | 0.019 | 0.01 |
| MWTIYSGIKRSLHYCRRRGYYCSRYGYYS [Cand-43, chemically synthesized candidate AMP predicted from marine biofilm bacteria] | 0 | 0.215 | 0.031 | 0.297 | 0 | 0.67 | 0.124 | 0.385 |
| MWTVRPRICAARGRL [Cand-172, chemically synthesized candidate AMP predicted from marine biofilm bacteria] | 1 | 0 | 0 | 0.9 | 0.898 | 0 | 0 | 1 |
| MWWSKSIHQACFTRYRGYCRWCCTFSIRSCRY [Cand-3, chemically synthesized candidate AMP predicted from marine biofilm bacteria] | 0.786 | 0 | 0 | 1 | 0.438 | 1 | 0 | 0.702 |
| MWWSKSIHQASFTRYRSYCRGCCTFSIRSCRYKRRII [Cand-180, chemically synthesized candidate AMP predicted from marine biofilm bacteria] | 0 | 0 | 0.107 | 0 | 0.025 | 0 | 0 | 0 |
| MYSVWPKSLRSVAGRGPKHRC [Cand-139, chemically synthesized candidate AMP predicted from marine biofilm bacteria] | 0.764 | 0.342 | 0 | 1 | 0.426 | 0.931 | 0.013 | 0.959 |
